Assay results published in PubChem BioAssay AID1259407 (Chemical Carcinogenesis Research Information System (CCRIS), 2018).
Calls of active or inactive are those of the source. No rule for the calls is given here.

System: CCRIS mutagenicity, Ames/micronucleus/aberration tests
Assay: CCRIS mutagenicity studies
[1] = Test System: AMES SALMONELLA TYPHIMURIUM, Strain/Indicator: TA98, Metabolic Activation: NONE, Method: PREINCUBATION
[2] = Test System: AMES SALMONELLA TYPHIMURIUM, Strain/Indicator: TA100, Metabolic Activation: NONE, Method: PREINCUBATION

Oc1cccc(O)c1O
mutagenic call (End Point: IN VITRO CHROMOSOMAL ABERRATIONS, Test System: V79 CELLS, Metabolic Activation: NONE): active; positive; active at higher levels at all ph values
mutagenic call (Test System: AMES SALMONELLA TYPHIMURIUM, Strain/Indicator: TA97, Metabolic Activation: NONE, Method: PREINCUBATION): active; positive
mutagenic call (Test System: AMES SALMONELLA TYPHIMURIUM, Strain/Indicator: TA97, Metabolic Activation: RAT, LIVER, S-9, PHENOBARBITAL, Method: PREINCUBATION): active; positive
mutagenic call (Test System: AMES SALMONELLA TYPHIMURIUM, Strain/Indicator: TA98, Metabolic Activation: NONE): inactive; negative
mutagenic call [1]: inactive; negative
mutagenic call (Test System: AMES SALMONELLA TYPHIMURIUM, Strain/Indicator: TA98, Metabolic Activation: NONE, Method: STANDARD PLATE): inactive; negative
mutagenic call (Test System: AMES SALMONELLA TYPHIMURIUM, Strain/Indicator: TA98, Metabolic Activation: RAT, LIVER, S-9, AROCLOR 1254, Method: PREINCUBATION): inactive; negative
mutagenic call (Test System: AMES SALMONELLA TYPHIMURIUM, Strain/Indicator: TA98, Metabolic Activation: RAT, LIVER, S-9, PHENOBARBITAL, Method: PREINCUBATION): active; positive
mutagenic call (Test System: AMES SALMONELLA TYPHIMURIUM, Strain/Indicator: TA98, Metabolic Activation: S-9): inactive; negative
mutagenic call (Test System: AMES SALMONELLA TYPHIMURIUM, Strain/Indicator: TA98, Metabolic Activation: S-9, Method: STANDARD PLATE): active; positive
mutagenic call [2]: active; positive
mutagenic call (Test System: AMES SALMONELLA TYPHIMURIUM, Strain/Indicator: TA100, Metabolic Activation: NONE, Method: STANDARD PLATE): inactive; negative
mutagenic call (Test System: AMES SALMONELLA TYPHIMURIUM, Strain/Indicator: TA100, Metabolic Activation: RAT, LIVER, S-9, PHENOBARBITAL, Method: PREINCUBATION): active; positive
mutagenic call (Test System: AMES SALMONELLA TYPHIMURIUM, Strain/Indicator: TA100, Metabolic Activation: S-9, Method: STANDARD PLATE): active; positive
mutagenic call (Test System: AMES SALMONELLA TYPHIMURIUM, Strain/Indicator: TA102, Metabolic Activation: NONE, Method: STANDARD PLATE): active; positive
mutagenic call (Test System: AMES SALMONELLA TYPHIMURIUM, Strain/Indicator: TA102, Metabolic Activation: RAT, LIVER, S-9, AROCLOR 1254, Method: PREINCUBATION): inactive; negative
mutagenic call (Test System: AMES SALMONELLA TYPHIMURIUM, Strain/Indicator: TA1535, Metabolic Activation: NONE, Method: PREINCUBATION): inactive; negative
mutagenic call (Test System: AMES SALMONELLA TYPHIMURIUM, Strain/Indicator: TA1535, Metabolic Activation: RAT, LIVER, S-9, AROCLOR 1254, Method: PREINCUBATION): inactive; negative
mutagenic call (Test System: AMES SALMONELLA TYPHIMURIUM, Strain/Indicator: TA2638, Metabolic Activation: NONE, Method: STANDARD PLATE): active; positive
mutagenic call (Test System: E. COLI, Strain/Indicator: WP2 (PKM101), Metabolic Activation: NONE, Method: STANDARD PLATE): active; positive
mutagenic call (Test System: E. COLI, Strain/Indicator: WP2 UVRA (PKM101), Metabolic Activation: NONE, Method: STANDARD PLATE): active; positive

CC(=O)[C@]1(O)Cc2c(O)c3c(c(O)c2[C@@H](O[C@H]2C[C@H](N)[C@H](OC(C[C@H](C)O)O[C@@H](C)C=O)[C@H](C)O2)C1)C(=O)c1c(O)cccc1C3=O (stereo partly specified)
mutagenic call [1]: active; positive
mutagenic call (Test System: AMES SALMONELLA TYPHIMURIUM, Strain/Indicator: TA98, Metabolic Activation: RAT, LIVER, S-9, Method: PREINCUBATION): active; positive
mutagenic call (Test System: AMES SALMONELLA TYPHIMURIUM, Strain/Indicator: TA98, Metabolic Activation: S-9, Method: PREINCUBATION): active; positive
mutagenic call [2]: active; positive
mutagenic call (Test System: AMES SALMONELLA TYPHIMURIUM, Strain/Indicator: TA100, Metabolic Activation: RAT, LIVER, S-9, Method: PREINCUBATION): active; positive
mutagenic call (Test System: AMES SALMONELLA TYPHIMURIUM, Strain/Indicator: TA100, Metabolic Activation: S-9, Method: PREINCUBATION): active; positive
mutagenic call (Test System: CHINESE HAMSTER V-79, Strain/Indicator: V-79/6-THIOGUANINE, Metabolic Activation: NONE): active; positive
mutagenic call (Test System: CHINESE HAMSTER V-79, Strain/Indicator: V-79/6-THIOGUANINE, Metabolic Activation: NONE, Method: REPLATING): active; positive

C=C1C[C@@H]2CC[C@]34C[C@@H]5O[C@@H]6[C@H](O[C@H]7CC[C@H](CC(=O)O[C@@H]8[C@H](C)[C@@H]9O[C@@H]%10C[C@]%11(C[C@@H]%12O[C@@]%13(C[C@H](C)[C@@H]%12O%11)C[C@H](C)[C@@H]%11O[C@@H]([C@@H](O)C[C@H](O)CO)C[C@H]%11O%13)O[C@@H]%10C[C@@H]9O[C@H]8C[C@@H]8O[C@H](CC[C@@H]1O2)C[C@H](C)C8=C)O[C@@H]7[C@H]6O3)[C@H]5O4
mutagenic call (Test System: Mouse lymphoma, Strain/Indicator: L5178Y (tk+/tk-), Metabolic Activation: None, Method: Suspension/plate): inactive; negative
mutagenic call (Test System: Mouse lymphoma, Strain/Indicator: L5178Y (tk+/tk-), Metabolic Activation: Rat, Liver, S-9, Aroclor 1254, Method: Suspension/plate): active; equivocal (previous evaluation positive)
